# Values quoted from earlier work in patent US20210386741A1, “FORMULATIONS OF IBRUTINIB” (Zhuhai Beihai Biotech Co., Ltd., priority 2016, published 2021).
# Assays:
# [1] = oral
# human plasma protein = conditions: in vitro, no concentration dependence in the range of 50 to 1000 ng/mL
compound,measurement,setting,value
C=CC(=O)N1CCC[C@@H](n2nc(-c3ccc(Oc4ccccc4)cc3)c3c(N)ncnc32)C1 [ibrutinib],Absolute bioavailability,"[1]; fasted condition (n=8), 90% CI=2.1−3.9",2.9%
same,change of absolute bioavailability when combined with a meal,[1]; with a meal versus fasted,doubled
same,increase of AUC on administration with food,[1]; with food compared with after overnight fasting,approximately 2 fold
same,reversible binding to human plasma protein,human plasma protein,97.3%
same,solubility in water,,practically insoluble in water
